From article PMC4982760, “Small-molecule inhibitors identify the RAD52-ssDNA interaction as critical for recovery from replication stress and for survival of BRCA2 deficient cells” (eLife, 2016)

Assays:
[1] = molecular target: T1, RAD52-dsDNA interaction (Homo sapiens, UniProt P43351); experiment: FRET-based RAD52-dsDNA binding assay; conditions: 1 nM dsDNA, 10 nM RAD52
T1 construct: made in house
T1 sequence (P43351 1-418): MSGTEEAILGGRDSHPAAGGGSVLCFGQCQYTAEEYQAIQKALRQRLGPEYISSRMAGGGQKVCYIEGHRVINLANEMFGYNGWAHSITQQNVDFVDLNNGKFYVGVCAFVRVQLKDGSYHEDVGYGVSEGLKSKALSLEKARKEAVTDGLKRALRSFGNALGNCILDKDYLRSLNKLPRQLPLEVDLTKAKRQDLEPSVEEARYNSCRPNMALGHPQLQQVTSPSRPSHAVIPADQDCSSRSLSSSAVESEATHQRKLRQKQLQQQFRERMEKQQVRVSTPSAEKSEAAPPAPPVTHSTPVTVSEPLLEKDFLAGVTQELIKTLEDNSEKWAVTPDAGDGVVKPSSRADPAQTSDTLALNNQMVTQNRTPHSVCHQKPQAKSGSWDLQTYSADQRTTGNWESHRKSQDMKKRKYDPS

[2] = molecular target: T2, RPA (Homo sapiens, UniProt P15927+P27694+P35244); experiment: WaterLOGSY NMR binding to RPA; conditions: 20-40 μM compound, 3.3 μM RPA
T2 construct: made in house
T2 sequence (P27694 whole entry): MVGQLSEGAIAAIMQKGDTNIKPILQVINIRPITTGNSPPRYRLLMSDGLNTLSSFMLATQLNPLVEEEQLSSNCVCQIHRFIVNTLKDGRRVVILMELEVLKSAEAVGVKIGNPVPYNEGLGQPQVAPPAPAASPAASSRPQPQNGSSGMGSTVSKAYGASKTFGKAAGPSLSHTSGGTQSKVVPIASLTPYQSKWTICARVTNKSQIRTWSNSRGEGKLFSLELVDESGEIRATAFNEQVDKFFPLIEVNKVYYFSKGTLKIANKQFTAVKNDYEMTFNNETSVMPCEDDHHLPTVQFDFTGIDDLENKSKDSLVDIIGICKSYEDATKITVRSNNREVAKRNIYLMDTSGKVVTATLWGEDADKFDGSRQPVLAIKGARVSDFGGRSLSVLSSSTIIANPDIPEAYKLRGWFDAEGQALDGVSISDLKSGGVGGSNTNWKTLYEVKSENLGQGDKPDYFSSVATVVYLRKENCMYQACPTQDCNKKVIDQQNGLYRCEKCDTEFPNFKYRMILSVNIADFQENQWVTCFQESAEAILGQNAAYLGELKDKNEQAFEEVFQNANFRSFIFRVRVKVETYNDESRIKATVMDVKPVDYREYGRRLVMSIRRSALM
T2 sequence (P15927 whole entry): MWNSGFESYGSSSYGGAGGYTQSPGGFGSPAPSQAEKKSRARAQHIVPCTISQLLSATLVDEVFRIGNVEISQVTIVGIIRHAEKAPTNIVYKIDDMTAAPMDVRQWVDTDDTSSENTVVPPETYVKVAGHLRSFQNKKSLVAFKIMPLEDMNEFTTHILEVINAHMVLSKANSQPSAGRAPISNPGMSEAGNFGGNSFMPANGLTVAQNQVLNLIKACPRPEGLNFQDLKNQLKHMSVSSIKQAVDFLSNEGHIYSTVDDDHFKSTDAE
T2 sequence (P35244 whole entry): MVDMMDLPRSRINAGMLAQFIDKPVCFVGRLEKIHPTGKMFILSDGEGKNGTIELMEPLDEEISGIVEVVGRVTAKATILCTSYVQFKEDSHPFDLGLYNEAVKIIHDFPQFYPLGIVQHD
Source text: (§1) To confirm that the selected compounds bind RAD52, we employed water-ligand observation with gradient spectroscopy (WaterLOGSY), an NMR technique, which is based on transfer of magnetization from bulk water to the protein-bound compound of interest ([Dalvit et al., 2001], [2000]). In WaterLOGSY spectrum, if a compound binds to a protein, the compound will receive negative nuclear Overhauser effects (NOEs) due to the slow tumbling of the protein-compound complex, leading to a positive WaterLOGSY peak. […] Similarly, the binding of ‘6’to RAD52 is evident from the positive WaterLOGSY peaks that are clearly detected for this compound (Figure 3a).
(§2) Compound binding to RAD52 and RPA proteins was analyzed using water-ligand observation with gradient spectroscopy (WaterLOGSY) NMR experiments ([Dalvit et al., 2001], [2000]). The WaterLOGSY spectra of compounds in the presence of RAD52 or RPA were acquired using a water NOE mixing time of 1 s and a T2 relaxation filter of 50 ms just before data acquisition to suppress the broad signals derived from protein. The protein buffer used in the experiments contains 10 mM Tris-d11, 75 mM KCl, 0.25 mM EDTA, pH 7.5, and 10% D20. All NMR data were acquired on a Bruker Avance II 800 MHz NMR spectrometer equipped with a sensitive cryoprobe and recorded at 25°C. The ^1H chemical shifts were referenced to 2,2-dimethyl-2-silapentane-5-sulfonate (DSS). NMR spectra were processed using NMR Pipe ([Delaglio et al., 1995]) and analysed using NMR View ([Johnson and Blevins, 1994]).

[3] = molecular target: T3, RAD52 (Homo sapiens, UniProt P43351); experiment: WaterLOGSY NMR binding to RAD52; conditions: 20-40 μM compound, 3.3 μM RAD52
T3 construct: made in house
T3 sequence (P43351 1-418): T1 sequence (P43351 1-418)
Source text: as §1, §2

[4] = tested on: MUS81; experiment: Anaphase bridges in aphidicolin-treated cells (MUS81 activity); type: cell-based, human; conditions: GM01604, 0.2 µM aphidicolin 24h, increasing concentration of compound
Procedure: Figure 5. Inhibiting the RAD52-ssDNA interaction interferes with RAD52/MUS81-mediated DSB formation essential for replication fork recovery in check point deficient cells. (a) Representative images showing fields of cells from the comet assay for untreated, as well as from UCN01 (300 nM) and HU (2 mM) treated cells in the presence and absence of ‘1’, ‘6’, and siRAD52. (b) ‘1’ and ‘6’ at 1 or 25 μM recapitulate RAD52 depletion. GM1604 cells, transfected or not with siRNAs against RAD52, were treated as indicated, in the presence or absence of the inhibitor. At the end of treatment, DSBs were analyzed by neutral comet assay. Data are presented as the mean ± SEM from two independent experiments; p values are shown in the graph when differences are statistically significant. (c–d) Inhibitors ‘1’ and ‘6’, respectively decrease the mean tail moment following HU treatment with IC50 values ranging from mid nanomolar to low micromolar. Cells were treated as in (b). Data are from three independent experiments. DOI: http://dx.doi.org/10.7554/eLife.14740.012 Figure 5—figure supplement 1. […] (a) GM01604 wild-type fibroblasts were transfected with CTRL or MUS81 siRNA. Forty eight hours after transfection the fibroblasts were lysed and analysed by WB with the indicated antibodies. […] (c) The presence of anaphase bridges, as shown in the representative images, was scored in DAPI-stained cells. […]

## Oc1cc(O)c2c(c1)O[C@H](c1cc(O)c(O)c(O)c1)[C@H](O)C2 [Compound 1, (−)−Epigallocatechin]
[1]
  effect on the RAD52-dsDNA interaction: had no effect on the RAD52-dsDNA interaction
[2]
  binding to RPA (WaterLOGSY): neither binds to RPA
[3]
  binding to RAD52 (WaterLOGSY): physically interact with RAD52 protein
[4]
  effect on MUS81 activity (anaphase bridges): does not affect MUS81 activity
